# Reference: patent US6908912B2, “Pyrithione biocides enhanced by zinc metal ions and organic amines” (priority 1999, dated 2005)
# Values joined by “and” are separate entries in the source; they are usually repeats but may differ in a detail not shown here. Identical values can stand only once. Like-named read-outs stand apart in the source and are kept apart here.
# How the values were obtained:
# [1] = system: Fusarium sp. and Cephalosporium sp. metalworking fluid field isolates; experiment: Efficacy against fungi in diluted (1:20) metalworking fluids, flask test (Examples 1-40); format: cell-based
# [2] = Solubility and stability of concentrated mixtures of sodium pyrithione, ZnCl2 and organic amines (Example 55); conditions: for solubility and stability of mixture after 24 and 72 hours: mixtures of sodium pyrithione, ZnCl2 and the named amine
# [3] = system: Fusarium sp and Cephalosporium sp.; experiment: Culture tube test with formaldehyde releasing biocide, viable fungal counts (Example 52); format: cell-based, fungi
# [4] = system: Fusarium sp and Cephalosporium sp.; experiment: Prevention of fungal contamination of metalworking fluid, repeated challenge (Example 53); format: cell-based, fungi
# [5] = system: Klebsiella pnenmoniae bacteria; conditions: cited from earlier work
# [6] = system: Pseudomonas aeruginosa 9027, Escherichia coli 8739, Pseudomonas fluorescens 12201, Pseudomonas rubescens 12202, and Pseudomonas putida; format: cell-based, bacteria
# [7] = system: Pseudomonas aeruginosa, Escherichia coli, Pseudomonas fluorescens, Pseudomonas rubescens, and Pseudomonas putida; format: cell-based, bacteria
# [8] = Blue discoloration of metalworking fluids in the presence of iron ions, visual inspection (Example 54); format: physicochemical
# [9] = Semi-Synthetic Fluid diluted 1:20, final 100 PPM NaPT, 21 PPM ZnCl2, 600 PPM amine or 1000 PPM Mixture as applicable
# [10] = Soluble Oil diluted 1:20, final 100 PPM NaPT, 21 PPM ZnCl2, 600 PPM amine or 1000 PPM Mixture as applicable
# [11] = Synthetic Fluid diluted 1:20, final 100 PPM NaPT, 21 PPM ZnCl2, 600 PPM amine or 1000 PPM Mixture as applicable
# [12] = Semi-synthetic MWF, Triazine 196 PPM ai TZ
# [13] = Semi-synthetic MWF, Triazine 393 PPM ai TZ
# [14] = Semi-synthetic MWF, Triazine 785 PPM ai TZ
molecule,measurement,setting,value
1-amino-2-propanol [Mixture 1A2P],Fungi/ml Day 1,[1]; [9],4.7 × 10^4 Fungi/ml
same,Fungi/ml Day 4,[1]; [9],5.0 × 10^4 Fungi/ml
same,Fungi/ml Day 1,[1]; [10],4.6 × 10^4 Fungi/ml
same,Fungi/ml Day 4,[1]; [10],2.5 × 10^4 Fungi/ml
same,Fungi/ml Day 1,[1]; [11],5.5 × 10^4 Fungi/ml
same,Fungi/ml Day 4,[1]; [11],3.6 × 10^4 Fungi/ml
"NCCCN [1,3-Diaminopropane]",Appearance at 24 Hrs,[2],S
same,Appearance at 72 Hrs,[2],S
NCCOCCO [2(2-Aminoethoxy)ethanol],solubility and stability of mixture after 24 and 72 hours,[2]; room temperature,precipitates
"CCC(N)(CO)CO [2-Amino-2-ethyl-1,3-propanediol]",solubility and stability of mixture after 24 and 72 hours,[2]; room temperature,precipitates
COCCCN [3-methoxypropylamine],solubility and stability of mixture after 24 and 72 hours,[2]; room temperature,soluble mixtures after 24 hours but not after 72 hours
NCCNCCN [Diethylenetriamine],Appearance at 24 Hrs,[2],S
same,Appearance at 72 Hrs,[2],S
CC(O)CNCC(C)O (stereo not drawn) [Diisopropanolamine],solubility and stability of mixture after 24 and 72 hours,[2]; room temperature,precipitates
"NCCO [MEA, monoethanolamine]",Fungi/ml Day 1,[1]; [9],4.3 × 10^4 Fungi/ml
same,Fungi/ml Day 4,[1]; [9],7.0 × 10^4 Fungi/ml
same,Fungi/ml Day 1,[1]; [10],2.9 × 10^4 Fungi/ml
same,Fungi/ml Day 4,[1]; [10],1.0 × 10^4 Fungi/ml
same,Fungi/ml Day 1,[1]; [11],4.7 × 10^4 Fungi/ml
same,Fungi/ml Day 4,[1]; [11],3.6 × 10^4 Fungi/ml
CCCNCCO [Propylethanolamine],Appearance at 24 Hrs,"[2]; mixture of NaPT 10.00, ZnCl2 1.74, organic amine(s) 60.50, water 27.76 weight %, room temperature",S
"OCCN1CN(CCO)CN(CCO)C1 [Triazine, hexahydro-1,3,5-tris(2-hydroxyethyl)-s-triazine]",Fungi/ml Day 3,"[3]; Soluble oil MWF, Triazine 49 PPM ai TZ",3.0 × 10^3 Fungi/ml
same,Fungi/ml Day 3,"[3]; Soluble oil MWF, Triazine 98 PPM ai TZ",1.1 × 10^3 Fungi/ml
same,Fungi/ml Day 3,"[3]; Soluble oil MWF, Triazine 196 PPM ai TZ",100 Fungi/ml
same,Fungi/ml Day 3,"[3]; Soluble oil MWF, Triazine 393 PPM ai TZ",0 Fungi/ml
same,Fungi/ml Day 3,"[3]; Soluble oil MWF, Triazine 589 PPM ai TZ",0 Fungi/ml
same,Fungi/ml Day 3,"[3]; Soluble oil MWF, Triazine 785 PPM ai TZ",0 Fungi/ml
same,Fungi/ml Week 4,[4]; [12],3.6 × 10^4 Fungi/ml
same,Fungi/ml Week 9,[4]; [12],6.2 × 10^4 Fungi/ml
same,Fungi/ml Week 4,[4]; [13],0 Fungi/ml
same,Fungi/ml Week 9,[4]; [13],70 Fungi/ml
same,Fungi/ml Week 4,[4]; [14],0 Fungi/ml
same,Fungi/ml Week 9,[4]; [14],0 Fungi/ml
"On1ccccc1=S [pyrithione, 1-hydroxy-2-pyridinethione]",activity against Klebsiella pnenmoniae bacteria,[5],favorable enhancement
sodium pyrithione [NaPT],Bacteria/ml Day 1,[6],4.0 × 10^5 Bacteria/ml and 5.2 × 10^6 Bacteria/ml and 4.3 × 10^6 Bacteria/ml
same,Bacteria/ml Day 4,[6],3.0 × 10^5 Bacteria/ml and 3.7 × 10^7 Bacteria/ml and 6.0 × 10^6 Bacteria/ml
same,Fungi/ml Day 1,[1],5.1 × 10^4 Fungi/ml and 7.0 × 10^4 Fungi/ml and 5.7 × 10^4 Fungi/ml
same,Fungi/ml Day 3,[3],7.7 × 10^4 Fungi/ml and 4.1 × 10^4 Fungi/ml
same,Bacteria/ml Week 4,[7],3.2 × 10^6 Bacteria/ml
same,Bacteria/ml Week 9,[7],6.1 × 10^6 Bacteria/ml
same,Fungi/ml Week 4,[4],8.9 × 10^4 Fungi/ml
same,Fungi/ml Week 9,[4],5.6 × 10^4 Fungi/ml
same,Initial Blue Color,[8],light and dark and blue
zinc chloride [ZnCl2],Fungi/ml Day 1,[1],7.7 × 10^4 Fungi/ml and 5.9 × 10^4 Fungi/ml and 5.2 × 10^4 Fungi/ml
same,Fungi/ml Day 4,[1],4.3 × 10^4 Fungi/ml and 3.2 × 10^4 Fungi/ml and 3.1 × 10^4 Fungi/ml
